Test results reported in patent publication US7919496B2, “Heterocyclic derivatives for the treatment of diseases mediated by stearoyl-CoA desaturase enzymes” (Xenon Pharmaceuticals Inc., priority 2004, dated 2011).

| melting point [°C] | Structure (SMILES) |
| --- | --- |
| 92 to 94 | CCCCCNC(=O)c1cnc(N2CCN(C(=O)c3ccccc3C(F)(F)F)CC2)s1 [Example 7, 2-[4-(2-TRIFLUOROMETHYLBENZOYL)PIPERAZIN-1-YL]-THIAZOLE-5-CARBOXYLIC ACID PENTYLAMIDE] |
| 58 to 61 | CCCCCNC(=O)c1cc(N2CCN(C(=O)c3ccccc3C(F)(F)F)CC2)nn1C(=O)OCc1ccccc1 [Example 6, 5-PENTYLCARBAMOYL-3-[4-(2-TRIFLUOROMETHYLBENZOYL)PIPERAZIN-1-YL]PYRAZOLE-1-CARBOXYLIC ACID BENZYL ESTER] |
